“And” between values parts separate entries of the source, which are not always exact repeats. Equal values may be shown once.
Tests used:
hGALK1 [1] = biological target: T1, hGALK1 (Homo sapiens, UniProt P51570, E253A/K252A); test: Amplex Red fluorescence-based hGALK1 activity assay (coupled with galactose oxidase); assay type: biochemical; design: Vmaxapp, substrate ATP, with ligand (+) / Kmapp, substrate ATP, with ligand (+): unit not given here; details: for mode of inhibition with respect to ATP: 50 μM galactose, 0–250 μM ATP, best-fit model in GraphPad Prism; for Kmapp, substrate ATP, with ligand (+) / Vmaxapp, substrate ATP, with ligand (+): 50 µM galactose, maximum tested concentration: 1 mM T1, 15 mM fragment 3, 2 mM 11–13; for inhibition at 2000 µM: 2 mM compound; for Amplex Red LLEAT: calculated cumulatively over N1 and N2
T1 construct: A hGALK1 construct, encoding full-length protein harboring the surface entropy[41] mutations K252A:E253A; His6 (N); made in house; host or cells: E. coli BL21(DE3)
Source text: Consequently, to confirm the mode of inhibition of the spiro-benzoxazole inhibitors with respect to ATP, we adopted the Amplex Red fluorescence-based assay[33],[34] by coupling the hGALK1 reaction with D. dendroides galactose oxidase (GAO; EC 1.1.3.9) to measure the level of galactose remaining after being depleted as a substrate for hGALK1. In this method, hydrogen peroxide generated by the oxidation of galactose by GAO is used by horseradish peroxidase to convert the nonfluorescent substrate Amplex Red into its highly fluorescent product resorufin; therefore, the resultant fluorescent signal is inversely proportional to hGALK1 enzyme activity. We optimized several parameters of this assay to allow measurement of hGALK1 activity for the first time (Figure S3; Supplementary Results).
The Amplex Red assay reagent contained horseradish peroxidase (EC 1.11.1.7, 0.2 U/mL), its substrate Amplex Red (10-acetyl-3,7-dihydroxyphenoxazine, 100 μM), and galactose oxidase (EC 1.1.3.9, 4 U/mL). The assay buffer used was the same as in the Kinase-Glo assay. […] Amplex Red reagent was added at a 1:1 volume to the hGALK1 reaction after 1-h incubation at RT. Fluorescence emission was measured at 585 nm, with excitation at 570 nm, after a further incubation period of 40 minutes, using a Pherastar FSX plate reader with a FI 540 590 optics module. Reactions were performed in technical triplicates for two biological replicates, and data were plotted and fitted as described for the Kinase-Glo assay except that the reaction rate, defined as total galactose consumed over the 1-h hGALK1 reaction, was determined using the following equation, where Fluorreaction = mean value of measured fluorescence of each reaction and Fluor50 = measured fluorescence with no galactose (i.e., fluorescence of 50 μM galactose): [drawing 2]

hGALK1 [2] = biological target: T1, hGALK1; test: Kinase-Glo luminescent hGALK1 activity assay; assay type: biochemical; design: Vmaxapp, substrate galactose, with ligand (+) / Kmapp, substrate galactose, with ligand (+): unit not given here; details: for mode of inhibition with respect to galactose: 35 μM ATP, 0–250 μM galactose, best-fit model in GraphPad Prism; for Kmapp, substrate galactose, with ligand (+) / Vmaxapp, substrate galactose, with ligand (+): 35 µM ATP, maximum tested concentration: 1 mM T1, 15 mM fragment 3, 2 mM 11–13; for inhibition at 2000 µM: 2 mM compound; for change in hGALK1 activity, strictly standardized mean difference (SSMD): 5 mM fragment; for Kinase-Glo LLEAT: calculated cumulatively over N1 and N2
Description: hGALK1 activity in vitro was determined using the Kinase-Glo luminescent kinase assay (Promega), according to the manufacturer’s protocol. […] Following a 1-h RT incubation, 10 μL of Kinase-Glo Plus detection reagent was added (final assay volume: 20 μL/well), and after a further 20 minutes RT incubation, luminescence was detected using a Pherastar FSX plate reader (BMG Labtech) containing a luminescence optics module. […] All reactions were performed in technical triplicates for two different preparations of hGALK1.
Data were plotted using GraphPad Prism software; curve fitting was performed with a nonlinear least-squares regression fit to the mixed, competitive, noncompetitive, and uncompetitive inhibition models from the GraphPad Prism enzyme kinetics–inhibition equations and the best fit selected by comparison of Akaike’s Information Criterion (AICc) probability scores and extra sum-of-squares F test P values calculated by the software.

hGALK1 [3] = biological target: T1, hGALK1; test: Surface plasmon resonance (SPR) binding assay; details: hGALK1 immobilized on CM5 chip, analyte 0.195–200 μM, n = 1
Description: Purified hGALK1 (30 μg/mL), diluted in acetate buffer at pH 5, was attached via covalent coupling to a density of 13000 RU on a CM5 chip. The assay buffer was 50 mM sodium phosphate, pH 7.5, 200 mM NaCl, 0.5 mM TCEP, 5% DMSO, and 0.05% TWEEN20. A serial dilution (11 concentrations) was prepared in the above buffer for each analyte (3, 11–13) by 1:1 dilution from 200 μM to 0.195 μM, and the subsequent solutions were passed over the chip at a flow rate of 30 μL/min. Data are from an n = 1 experiment.

hGALK2 = biological target: T2, hGALK2 (Homo sapiens, UniProt Q01415); test: Kinase-Glo hGALK2 activity assay; assay type: biochemical; details: 1 mM compound
T2 construct: Constructs encoding full-length hGALK2 (Met1-Ala458) and hMVK (Met1-Leu396); His6-Strep-Strep tag followed by TEV protease cleavage site (N); made in house; host or cells: E. coli BL21(DE3)
T2 sequence (Q01415 1-458): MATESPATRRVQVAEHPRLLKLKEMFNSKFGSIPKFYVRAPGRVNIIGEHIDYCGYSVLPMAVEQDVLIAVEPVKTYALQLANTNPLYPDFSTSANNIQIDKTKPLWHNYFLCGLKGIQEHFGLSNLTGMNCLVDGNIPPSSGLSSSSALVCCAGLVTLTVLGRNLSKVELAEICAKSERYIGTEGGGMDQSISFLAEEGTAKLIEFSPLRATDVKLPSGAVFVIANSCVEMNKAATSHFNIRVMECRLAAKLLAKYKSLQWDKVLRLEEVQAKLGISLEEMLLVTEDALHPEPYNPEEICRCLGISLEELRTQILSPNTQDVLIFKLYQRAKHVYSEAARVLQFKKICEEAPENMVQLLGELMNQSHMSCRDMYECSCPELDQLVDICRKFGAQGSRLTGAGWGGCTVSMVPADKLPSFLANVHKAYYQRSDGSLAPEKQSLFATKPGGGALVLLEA
Description: (§1) hGALK1 activity in vitro was determined using the Kinase-Glo luminescent kinase assay (Promega), according to the manufacturer’s protocol. […] Similarly, hGALK2 activity and inhibition was measured with reactions containing 50 nM hGALK2, 100 μM N-acetylgalactosamine, and 35 μM ATP in the above-described buffer and hMVK activity and inhibition was measured with reactions containing 250 nM hMVK, 100 μM mevalonate, and 35 μM ATP in the above-described buffer. Following a 1-h RT incubation, 10 μL of Kinase-Glo Plus detection reagent was added (final assay volume: 20 μL/well), and after a further 20 minutes RT incubation, luminescence was detected using a Pherastar FSX plate reader (BMG Labtech) containing a luminescence optics module. To determine the inhibition mode with respect to galactose, 10 nM hGALK1 and 35 μM ATP in an assay buffer was added to an array of six fragment (0–15 mM) or 12 compound (0–2 mM) concentrations against six galactose concentrations (0–250 μM), with a final reaction volume of 10 μL/well dispensed into 384-well assay plates (Greiner), and measured as described above. All reactions were performed in technical triplicates for two different preparations of hGALK1. Reaction rate, defined as total ATP consumed over the 1-h hGALK1 reaction, was determined using the following equation, where Lumreaction = mean value of measured luminescence of each reaction and Lum35 = measured luminescence with no galactose (i.e., luminescence of 35 μM ATP): [drawing 1]

hMVK = biological target: T3, hMVK (Homo sapiens, UniProt Q03426); test: Kinase-Glo hMVK activity assay; assay type: biochemical; details: 1 mM compound
T3 construct: Constructs encoding full-length hGALK2 (Met1-Ala458) and hMVK (Met1-Leu396); His6-Strep-Strep tag followed by TEV protease cleavage site (N); made in house; host or cells: E. coli BL21(DE3)
Description: as §1

[4] = concentration achieving 50% inhibition, IC50 not determinable, lower potency
[5] = biological replicate N1, read-out: Amplex Red N1 IC50
[6] = biological replicate N2, read-out: Amplex Red N2 IC50
[7] = biological replicate N1, read-out: Kinase-Glo N1 IC50
[8] = biological replicate N2, read-out: Kinase-Glo N2 IC50
[9] = range over Kinase-Glo and Amplex Red assays
[10] = range over Kinase-Glo and Amplex Red assays, two biological replicates, read-out: IC50 values, range

T1 sequence (P51570 whole entry K252A/E253A, the tested form may be a part): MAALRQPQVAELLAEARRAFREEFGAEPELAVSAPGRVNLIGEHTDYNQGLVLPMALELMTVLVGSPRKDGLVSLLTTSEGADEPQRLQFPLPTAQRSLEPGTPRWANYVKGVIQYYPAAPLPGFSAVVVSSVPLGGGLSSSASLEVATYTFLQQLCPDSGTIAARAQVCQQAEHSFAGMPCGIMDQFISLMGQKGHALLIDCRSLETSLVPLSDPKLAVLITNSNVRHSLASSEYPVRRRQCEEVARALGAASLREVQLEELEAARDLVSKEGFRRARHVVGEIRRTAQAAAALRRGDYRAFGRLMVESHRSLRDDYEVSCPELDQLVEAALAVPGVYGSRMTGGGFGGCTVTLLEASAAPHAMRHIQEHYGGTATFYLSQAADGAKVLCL
T3 sequence (Q03426 whole entry): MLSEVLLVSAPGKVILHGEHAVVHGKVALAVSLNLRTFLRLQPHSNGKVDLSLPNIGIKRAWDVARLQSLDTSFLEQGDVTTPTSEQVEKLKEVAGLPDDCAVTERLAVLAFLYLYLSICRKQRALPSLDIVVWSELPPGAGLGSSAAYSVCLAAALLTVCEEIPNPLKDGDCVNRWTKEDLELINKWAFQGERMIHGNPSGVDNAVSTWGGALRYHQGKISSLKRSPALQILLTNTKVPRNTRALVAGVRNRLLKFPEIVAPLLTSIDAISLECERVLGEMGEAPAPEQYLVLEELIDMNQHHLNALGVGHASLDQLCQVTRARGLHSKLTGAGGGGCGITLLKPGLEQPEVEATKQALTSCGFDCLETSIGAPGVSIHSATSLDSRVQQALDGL

Row | mode of inhibition with respect to ATP (hGALK1 [1]) | Kmapp, substrate ATP, with ligand (+) (hGALK1 [1]) | Vmaxapp, substrate ATP, with ligand (+) (hGALK1 [1]) | inhibition at 2000 µM (hGALK1 [1]) [%] | mode of inhibition with respect to galactose (hGALK1 [2]) | Kmapp, substrate galactose, with ligand (+) (hGALK1 [2]) | Vmaxapp, substrate galactose, with ligand (+) (hGALK1 [2]) | inhibition at 2000 µM (hGALK1 [2]) [%] | Kd (hGALK1 [3]) | inhibition at 1000 µM (hGALK2) [%] | inhibition at 1000 µM (hMVK) [%] | change in hGALK1 activity, strictly standardized mean difference (SSMD) (hGALK1 [2]) | IC50 (hGALK1 [1]; [5]) [µM] | IC50 (hGALK1 [1]; [6]) [µM] | Amplex Red LLEAT (hGALK1 [1]) [kcal/mol] | IC50 (hGALK1 [2]; [7]) [µM] | IC50 (hGALK1 [2]; [8]) [µM] | Kinase-Glo LLEAT (hGALK1 [2]) [kcal/mol] | LLEAT (Astex ligand lipophilicity efficiency score), range (hGALK1 [2]; [9]) [kcal/mol] | IC50 (hGALK1 [2]; [10]) [µM] | Compound | further results
1 | noncompetitive | 46.5 ± 4.5 | 14.7 ± 3.0 | > 50 | mixed | 143.6 ± 7.6 | 4.4 ± 0.4 | > 50 | ~200 µM and ~203 µM | < 10 | < 10 |  |  |  |  |  |  |  |  |  | COc1ccc(Cl)cc1C(=O)NC1CCN(c2ncccn2)CC1 [compound 13] | IC50 (hGALK1 [1]; [4]): ~1000 µM; IC50 (hGALK1 [2]; [4]): ~1000 µM
2 |  |  |  |  |  |  |  |  |  |  |  | < 0.5 |  |  |  |  |  |  |  |  | O=C(NCCN1CCCC1=O)Nc1ccccc1 [fragment 5] | 
3 | noncompetitive | 36.5 ± 5.8 | 11.1 ± 0.9 | > 50 | noncompetitive | 36.5 ± 2.1 | 3.7 ± 0.4 | > 50 | ~100 µM and 89 µM | < 10 | < 10 |  | 31 | 65 | 0.22 | 209 | 116 | 0.19 | 0.19 to 0.22 | 31 to 209 | O=C(CNc1cnc2cc(Cl)c(Cl)cc2n1)NC1CC1 [compound 11] | 
4 |  |  |  |  |  |  |  |  |  |  |  | 0.80 |  |  |  |  |  |  |  |  | COc1ccc(Cl)cc1C(=O)NCC(C)C [fragment 10] | 
5 | noncompetitive | 40.4 ± 4.7 | 11.8 ± 0.2 | > 50 | noncompetitive | 41.5 ± 12.4 | 9.4 ± 1.1 | > 50 | ~100 µM and 97 µM | < 10 | < 10 |  | 45 | 25 | 0.27 | 198 | 96 | 0.23 | 0.23 to 0.27 | 25 to 198 | COCCNC(=O)CNc1cnc2cc(Cl)c(Cl)cc2n1 [compound 12] | 
6 |  |  |  |  |  |  |  |  |  |  |  | < 0.5 |  |  |  |  |  |  |  |  | O=C(OCc1ccc(Cl)cc1)c1cccnc1 [fragment 4] | 

— article PMC8056384 (ACS Chemical Biology, 2021)
